Patent publication US9517233B2, “Local cochlear application of statins for stimulating neurite regrowth in the cochlea” (Northwestern University, priority 2012, dated 2016)
“Also recorded” adds a separate entry of the source.

What was measured:
[1] = test system: spiral ganglion neurons; assay: In vitro phenotypic screening assay of neurite length in spiral ganglion cultures; format: cell-based, mouse; conditions: for lowest effective dose for stimulating neurite growth (neurite length dose response) / effect on neurite length: spiral ganglion cultures; for lowest effective dose for stimulating neurite growth (neurite length dose response): cumulative percent histograms of neurite length vs DMSO control, highest dose tested 25 μM for Pravastatin; for effect on neurite length at 10 μM: media containing compound at 10 μM, DMSO negative control, 4 replicate cultures; for effect on neurite length: compound in culture media
From the text: The in vitro phenotypic screen for spiral ganglion neurons is designed to identify both survival promoting and neurite promoting compounds. The screening procedure focuses on the survival, neurite initiation and neurite elongation steps of the experimental model (FIG. 5A-C). […] Newborn mouse pups served as a source for preparing primary cultures of the spiral ganglia from 16 cochleas. From these cochleas, 192 cultures in a 384 well plate that enables screening of 45 compounds and 3 controls for each dissection.
The screening approach preferably uses automated imaging and computer assisted data analysis. […] Populations of neurites are measured and graphed as cumulative percent histograms of neurite length. In these graphs, a shift to the right means that the population had longer neurites.
CD-1 mice (Charles River Laboratories, Wilmington Mass. [US]), age newborn, were used for cultures that test neurite length; postnatal day 1-2 mice were used for cultures that test survival. Mice were anesthetized by cooling at −80° C. for 4 minutes and euthanized by aseptic decapitation.
Cultures were prepared by a modification of the procedure previously reported and modified (Whitlon et al., Neuroscience 138, 653-662 (2006); Lie et al., Neuroscience 169, 855-862 (2010); Whitlon et al. Neuroscience 146, 833-840 (2007); Whitlon et al., Neuroscience 161, 227-235 (2009)). To increase the number of cultures produced from one dissecting session while maintaining consistency in the preparations, the number of animals was increased to 8 (16 cochleas, a practical limit) and the volume of the cultures was decreased to 50 μl. Cells derived from the equivalent of […] ganglia were plated in each well. These changes allowed the material from each dissection session to be cultured in 192 wells of a standard 384 well plate. Each dissection session could accommodate 3 controls and 45 compounds in quadruplicate. The cochlear capsule was opened and the tissue was treated with Dispase, 5 units/ml. After washing, the cochlea was removed from its capsule. The cochlear epithelium, spiral ligament and stria were dissected away. […] Both were then diluted in medium and added to the wells 22 hours after plating. Cultures were fixed 24 hours later with 4% paraformaldehyde in 0.1M sodium phosphate buffer, pH 7.2 for 45 minutes. Conditions were tested in quadruplicate. […] Negative controls were the vehicles DMSO (0.17%) and water (0.17%).
Fixed cultures were immunolabeled for the neural βIII tubulin using the mouse monoclonal antibody TuJ1 and Alexa Fluor 594 tagged secondary antibody as described for immunofluorescent labeling (Whitlon et al. Neuroscience 161, 227-235 (2009)). Nuclei were visualized with Nuclear Yellow. The labeled cultures were preserved with one drop of DAKO fluorescent mounting medium in each well.
The immunolabeled 384 well plates were loaded into an Image Xpress automatic imager for image acquisition.

[2] = test system: PTS noise exposed guinea pigs; assay: Guinea pig model of PTS, auditory brainstem response (ABR) thresholds after noise exposure; format: in vivo; conditions: left ear infused with 50 μM Fluvastatin, 250 μL over 28 days by miniosmotic pump, from noise exposure on; hearing measured in contralateral right ear
From the text: A testing method with a guinea pig model of PTS was developed for this purpose. Compounds were introduced into the left ear of the subject with a cannula attached to a miniosmotic pump. Because the cannula is physically within the cochlea, it had the possibility of interfering with sound transfer in the cochlea, and thereby interfering with auditory brain response (ABR) measurements. For this reason, the compound was delivered via cannula to the left ear, but tested for its effect in the contralateral ear, taking advantage of the connection between cochlear fluids and the cerebral spinal fluid. Animals were subjected to an sound injury causing PTS. Fluvastatin was delivered in vivo to the left ear at 50 times the concentration that was effective for stimulating neurite growth in vitro and ABRs were evaluated in the contralateral, right cochleas. […] The compound was first evaluated for the ability to provide a protective effect from hearing loss attributed to high level noise, wherein the compound was delivered at the same time as the noise exposure and for 4 weeks thereafter. […]
Drug efficiency was tested in guinea pigs, 200-500 g in body weight. […] Baseline cochlear function was determined with auditory brainstem responses. Sound levels to evoke a visual ABR response were determined for pure tones at selected frequencies between 2 and 32 kHz and for acoustic clicks. […]

Structure (SMILES)	lowest effective dose for stimulating neurite growth (neurite length dose response) [1]	effect on neurite length [1]	also measured
CC(C)n1c(/C=C/[C@H](O)C[C@H](O)CC(=O)O)c(-c2ccc(F)cc2)c2ccccc21 (stereo in doubt) [Fluvastatin, (3S,5R,6E)-7-[3-(4-fluorophenyl)-1-(propan-2-yl)-1H-indol-2-yl]-3,5-dihydroxyhept-6-enoic acid]	1 µM	–	protection from hearing loss / permanent threshold shift (ABR threshold change) [2]: effective protection by preventing hearing loss; also recorded: PTS injury could not be induced
CC(C)c1c(C(=O)Nc2ccccc2)c(-c2ccccc2)c(-c2ccc(F)cc2)n1CC[C@@H](O)C[C@@H](O)CC(=O)O [Atorvastatin, (3R,5R)-7-[2-(4-fluorophenyl)-3-phenyl-4-(phenylcarbamoyl)-5-(propan-2-yl)-1H-pyrrol-1-yl]-3,5-dihydroxyheptanoic acid]	10 µM	–	–
COCc1c(C(C)C)nc(C(C)C)c(/C=C/[C@@H](O)C[C@@H](O)CC(=O)O)c1-c1ccc(F)cc1 [Cerivastatin]	1 µM	–	effect of geranylgeraniol on the statin's stimulation of neurite length ([1]; media containing both statin (Cerivastatin 10 μM or Fluvastatin 5 μM) and geranylgeraniol (10 μM)): effectively blocked the stimulatory effect; effect on neurite length at 10 μM [1]: increased neurite length; neurite growth compared with positive control H1152 ([1]; screen of NIH Clinical Collection, FIG. 11A): stimulated neurite growth as well as H1152
O=S(=O)(c1cccc2cnccc12)N1CCCNCC1 [Fasudil]	–	stimulated neurite length	–
Cc1cncc2cccc(S(=O)(=O)N3CCCNC[C@@H]3C)c12 [H1152, 4-methyl-5-{[(2S)-2-methyl-1,4-diazepan-1-yl]sulfonyl}isoquinoline]	–	stimulate neurite length; also recorded: increased neurite lengths	–
O=c1[nH]ccc2c(S(=O)(=O)N3CCCNCC3)cccc12 [Hydroxyl Fasudil]	–	stimulated neurite length	–
CC[C@H](C)C(=O)O[C@H]1C[C@@H](C)C=C2C=C[C@H](C)[C@H](CC[C@@H]3C[C@@H](O)CC(=O)O3)[C@H]21 [Lovastatin, (1S,3R,7S,8S,8aR)-8-{2-[(2R,4R)-4-hydroxy-6-oxooxan-2-yl]ethyl}-3,7-dimethyl-1,2,3,7,8,8a-hexahydronaphthalen-1-yl (2S)-2-methylbutanoate]	5 µM	–	–
O=C(O)C[C@H](O)C[C@H](O)/C=C/c1c(C2CC2)nc2ccccc2c1-c1ccc(F)cc1 [Pitavastatin, (3R,5S,6E)-7-[2-cyclopropyl-4-(4-fluorophenyl)quinolin-3-yl]-3,5-dihydroxyhept-6-enoic acid]	2 µM	increase neurite length; also recorded: effective up to the highest dose tested	measured lengths of neurites compared with positive control H1152 ([1]; Pitavastatin at 2 μM or higher, H1152 16.5 μM): as long or longer
CC[C@H](C)C(=O)O[C@H]1C[C@H](O)C=C2C=C[C@H](C)[C@H](CC[C@@H](O)C[C@@H](O)CC(=O)O)[C@H]21 [Pravastatin]	> 25 µM	–	–
CCC(C)(C)C(=O)O[C@H]1C[C@@H](C)C=C2C=C[C@H](C)[C@H](CC[C@@H]3C[C@@H](O)CC(=O)O3)[C@H]21 [Simvastatin, (1S,3R,7S,8S,8aR)-8-{2-[(2R,4R)-4-hydroxy-6-oxooxan-2-yl]ethyl}-3,7-dimethyl-1,2,3,7,8,8a-hexahydronaphthalen-1-yl 2,2-dimethylbutanoate]	5 µM	–	–
CC(C)=CCC/C(C)=C/CC/C(C)=C/CC/C(C)=C/CO [geranylgeraniol]	–	–	effect on neurite length at 10 μM [1]: no effect upon growth of neurite length
